# Earlier results as cited in patent publication US10463731B2, “Adjuvant combinations comprising alpha-galactosylceramide or iGb3, CD40 agonists and antigen” (IMMURX, INC., priority 2007, dated 2019).
# System: tumors
# Conditions: monotherapy, mice
smiles,measurement,value
"CCCCCCCCCCCCCCCCCCCCCCCCCC(=O)N[C@@H](CO[C@H]1O[C@H](CO)[C@H](O)[C@H](O)[C@H]1O)[C@H](O)[C@H](O)CCCCCCCCCCCCCC [α-Gal-Cer, alpha-galactosylceramide]",enhancement of immunity to tumors,limited success
